Reference: patent US9487515B2, “Compounds modulating c-fms and/or c-kit activity and uses therefor” (Plexxikon Inc., priority 2006, dated 2016)

Molecular target: c-kit (Homo sapiens, UniProt P10721)
Assay: c-kit assays of Examples 40 and 41 (AlphaScreen kinase assays at 10 and 100 μM ATP, 33P-ATP filter assay, M-07e SCF-stimulated proliferation and phosphorylation)

c-kit, sequence (P10721 with tags, fused parts or gaps): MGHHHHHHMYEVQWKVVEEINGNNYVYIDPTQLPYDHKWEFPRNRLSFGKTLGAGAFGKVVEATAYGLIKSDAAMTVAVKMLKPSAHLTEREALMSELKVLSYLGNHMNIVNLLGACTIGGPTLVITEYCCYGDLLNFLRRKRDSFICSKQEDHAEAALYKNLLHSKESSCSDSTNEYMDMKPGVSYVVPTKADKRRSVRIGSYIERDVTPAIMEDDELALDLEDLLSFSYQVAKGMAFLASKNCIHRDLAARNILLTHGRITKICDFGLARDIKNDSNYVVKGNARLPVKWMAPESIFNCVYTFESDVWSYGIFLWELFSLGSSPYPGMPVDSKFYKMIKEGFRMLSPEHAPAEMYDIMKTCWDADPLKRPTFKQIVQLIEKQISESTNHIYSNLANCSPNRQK

Row | Compound | IC50 [µM]
1 | O=C(Nc1ccc(Cc2c[nH]c3ncccc23)cn1)c1cccc(C(F)(F)F)c1 [P-0114, N-[5-(1H-Pyrrolo[2,3-b]pyridin-3-ylmethyl)-pyridin-2-yl]-3-trifluoromethyl-benzamide] | < 1
2 | COc1ccc(CNc2ccc(Cc3c[nH]c4ncc(C#N)cc34)cn2)cn1 [P-0284, 3-{6-[(6-Methoxy-pyridin-3-ylmethyl)-amino]-pyridin-3-ylmethyl}-1H-pyrrolo[2,3-b]pyridine-5-carbonitrile] | < 1
3 | Clc1cnc2[nH]cc(Cc3sc(NCc4ccncc4)nc3Cl)c2c1 [P-0237, [4-Chloro-5-(5-chloro-1H-pyrrolo[2,3-b]pyridin-3-ylmethyl)-thiazol-2-yl]-pyridin-4-ylmethyl-amine] | < 1
4 | Fc1cc(CNc2ccc(Cc3c[nH]c4ncccc34)cn2)cc(C(F)(F)F)c1 [P-0346, (3-Fluoro-5-trifluoromethyl-benzyl)-[5-(1H-pyrrolo[2,3-b]pyridin-3-ylmethyl)-pyridin-2-yl]-amine] | < 1
5 | FC(F)(F)Oc1ccccc1CNc1ncc(Cc2c[nH]c3ncc(Cl)cc23)cn1 [P-0402, [5-(5-Chloro-1H-pyrrolo[2,3-b]pyridin-3-ylmethyl)-pyrimidin-2-yl]-(2-trifluoromethoxy-benzyl)-amine] | < 1
6 | Cc1ccc(C(=O)Nc2ccc(Cc3c[nH]c4ncccc34)cn2)cn1 [P-0108, 6-Methyl-N-[5-(1H-pyrrolo[2,3-b]pyridin-3-ylmethyl)-pyridin-2-yl]-nicotinamide] | < 1
7 | CCCS(=O)(=O)Nc1ccc(F)c(CNc2ccc(Cc3c[nH]c4ncccc34)cn2)c1F [P-0258, propane-1-sulfonic acid (2,4-difluoro-3-[5-(1H-pyrrolo[2,3-b]pyridin-3-ylmethyl)-pyridin-2-ylamino]-methyl-phenyl)-amide] | < 1
8 | O=C(Nc1ccc(Cc2c[nH]c3ncccc23)cn1)c1ccc(F)c(F)c1 [P-0116, 3,4-Difluoro-N-[5-(1H-pyrrolo[2,3-b]pyridin-3-ylmethyl)-pyridin-2-yl]-benzamide] | < 1
9 | Fc1ccccc1CNc1ccc(Cc2c[nH]c3ncccc23)cn1 [P-0213, (2-Fluoro-benzyl)-[5-(1H-pyrrolo[2,3-b]pyridin-3-ylmethyl)-pyridin-2-yl]-amine] | < 1
10 | Cc1cc(C(=O)Nc2ccc(Cc3c[nH]c4ncccc34)cn2)n(C)n1 [P-0102, 2,5-Dimethyl-2H-pyrazole-3-carboxylic acid [5-(1H-pyrrolo[2,3-b]pyridin-3-ylmethyl)-pyridin-2-yl]-amide] | < 1
11 | Cn1nc(NCc2ccc(F)cc2)cc1Cc1c[nH]c2ncc(Cl)cc12 [P-0170, [5-(5-Chloro-1H-pyrrolo[2,3-b]pyridin-3-ylmethyl)-1-methyl-1H-pyrazol-3-yl]-(4-fluoro-benzyl)-amine] | < 1
12 | COc1ncccc1CNc1ccc(Cc2c[nH]c3ncc(C#N)cc23)cn1 [P-0287, 3-{6-[(2-Methoxy-pyridin-3-ylmethyl)-amino]-pyridin-3-ylmethyl}-1H-pyrrolo[2,3-b]pyridine-5-carbonitrile] | < 1
13 | Clc1ccc(CNc2ncc(Cc3c[nH]c4ncccc34)cn2)c(Cl)c1 [P-0305, (2,4-Dichloro-benzyl)-[5-(1H-pyrrolo[2,3-b]pyridin-3-ylmethyl)-pyrimidin-2-yl]-amine] | < 1
14 | Fc1ccc(C(F)(F)F)c(CNc2ccc(Cc3c[nH]c4ncccc34)cn2)c1 [P-0375, (5-Fluoro-2-trifluoromethyl-benzyl)-[5-(1H-pyrrolo[2,3-b]pyridin-3-ylmethyl)-pyridin-2-yl]-amine] | < 1
15 | FC(F)(F)c1ccccc1CNc1ccc(Cc2c[nH]c3ncccc23)cn1 [P-0226, [5-(1H-Pyrrolo[2,3-b]pyridin-3-ylmethyl)-pyridin-2-yl]-(2-trifluoromethyl-benzyl)-amine] | < 1
16 | FC(F)(F)c1cccc(CNc2ccc(Cc3c[nH]c4ncccc34)cn2)c1Cl [P-0363, (2-Chloro-3-trifluoromethyl-benzyl)-[5-(1H-pyrrolo[2,3-b]pyridin-3-ylmethyl)-pyridin-2-yl]-amine] | < 1
17 | CCCOc1ccccc1CNc1ccc(Cc2c[nH]c3ncccc23)cn1 [P-0357, (2-Propoxy-benzyl)-[5-(1H-pyrrolo[2,3-b]pyridin-3-ylmethyl)-pyridin-2-yl]-amine] | < 1
18 | c1csc(CNc2ccc(Cc3c[nH]c4ncccc34)cn2)c1 [P-0008, [5-(1H-pyrrolo[2,3-b]pyridin-3-ylmethyl)-pyridin-2-yl]-thiophen-2-ylmethyl-amine] | < 1
19 | Cc1cnc2[nH]cc(Cc3ccc(NCc4ccc(C(F)(F)F)nc4)nc3Cl)c2c1 [P-0234, [6-Chloro-5-(5-methyl-1H-pyrrolo[2,3-b]pyridin-3-ylmethyl)-pyridin-2-yl]-(6-trifluoromethyl-pyridin-3-ylmethyl)-amine] | < 1
20 | O=C(Nc1ccc(Cc2c[nH]c3ncccc23)cn1)c1ccncc1 [P-0105, N-[5-(1H-Pyrrolo[2,3-b]pyridin-3-ylmethyl)-pyridin-2-yl]-isonicotinamide] | < 1
21 | Cc1nc(NCc2ccc(C(F)(F)F)cc2)ccc1Cc1c[nH]c2ncccc12 [P-0013, [6-Methyl-5-(1H-pyrrolo[2,3-b]pyridin-3-ylmethyl)-pyridin-2-yl]-(4-trifluoromethyl-benzyl)-amine] | < 1

Row | Compound | IC50 [µM]
22 | O=C(c1ccc(NCc2ccccc2)nc1)c1c[nH]c2ncccc12 [P-0002, (6-Benzylamino-pyridin-3-yl)-(1H-pyrrolo[2,3-b]pyridin-3-yl)-methanone] | < 1
23 | COc1ccccc1CNC(=O)n1nc(C)c(Cc2c[nH]c3ncccc23)c1C [P-0145, 3,5-Dimethyl-4-(1H-pyrrolo[2,3-b]pyridin-3-ylmethyl)-pyrazole-1-carboxylic acid 2-methoxy-benzylamide] | < 1
24 | Cc1nc(NCc2ccc(Cl)cc2)ccc1Cc1c[nH]c2ncccc12 [P-0014, (4-Chloro-benzyl)-[6-methyl-5-(1H-pyrrolo[2,3-b]pyridin-3-ylmethyl)-pyridin-2-yl]-amine] | < 1
25 | FC(F)(F)c1ccc(CNc2ncc(Cc3c[nH]c4ncccc34)cn2)cc1 [P-0308, [5-(1H-Pyrrolo[2,3-b]pyridin-3-ylmethyl)-pyrimidin-2-yl]-(4-trifluoromethyl-benzyl)-amine] | < 1
26 | O=C(c1ccc(NCc2ccc(C(F)(F)F)cc2)nc1)c1c[nH]c2ncccc12 [P-0017, (1H-Pyrrolo[2,3-b]pyridin-3-yl)-[6-(4-trifluoromethyl-benzylamino)-pyridin-3-yl]-methanone] | < 1
27 | Cc1nc(-c2ccccc2)sc1Cn1nc(C)c(Cc2c[nH]c3ncccc23)c1C [P-0144, 3-[3,5-Dimethyl-1-(4-methyl-2-phenyl-thiazol-5-ylmethyl)-1H-pyrazol-4-ylmethyl]-1H-pyrrolo[2,3-b]pyridine] | < 1
28 | CCCS(=O)(=O)Nc1cccc(CNc2ccc(Cc3c[nH]c4ncccc34)cn2)c1F [P-0377, Propane-1-sulfonic acid (2-fluoro-3-{[5-(1H-pyrrolo[2,3-b]pyridin-3-ylmethyl)-pyridin-2-ylamino]-methyl}-phenyl)-amide] | < 1
29 | Clc1ccc(CNc2ccc(Cc3c[nH]c4ncccc34)cn2)c(Cl)c1 [P-0342, (2,4-Dichloro-benzyl)-[5-(1H-pyrrolo[2,3-b]pyridin-3-ylmethyl)-pyridin-2-yl]-amine] | < 1
30 | N#Cc1cnc2[nH]cc(Cc3ccc(NCc4ccccc4OC(F)(F)F)nc3)c2c1 [P-0321, 3-[6-(2-Trifluoromethoxy-benzylamino)-pyridin-3-ylmethyl]-1H-pyrrolo[2,3-b]pyridine-5-carbonitrile] | < 1
31 | O=C(Nc1ccc(Cc2c[nH]c3ncccc23)cn1)c1ccc(F)c(Cl)c1 [P-0115, 3-Chloro-4-fluoro-N-[5-(1H-pyrrolo[2,3-b]pyridin-3-ylmethyl)-pyridin-2-yl]-benzamide] | < 1
32 | COc1ccc(CNc2ccc(Cc3c[nH]c4ncccc34)cn2)cc1 [P-0004, (4-methoxy-benzyl)-[5-(1H-pyrrolo[2,3-b]pyridin-3-ylmethyl)-pyridin-2-yl]-amine] | < 1
33 | O=C(Nc1ccc(Cc2c[nH]c3ncccc23)cn1)c1ccc(Cl)c(Cl)c1 [P-0100, 3,4-Dichloro-N-[5-(1H-pyrrolo[2,3-b]pyridin-3-ylmethyl)-pyridin-2-yl]-benzamide] | < 1
34 | FC(F)(F)COc1ccc(CNc2ccc(Cc3c[nH]c4ncc(Cl)cc34)cn2)cn1 [P-0409, [5-(5-Chloro-1H-pyrrolo[2,3-b]pyridin-3-ylmethyl)-pyridin-2-yl]-[6-(2,2,2-trifluoro-ethoxy)-pyridin-3-ylmethyl]-amine] | < 1
35 | COc1ccc(CNc2ccc(Cc3c[nH]c4ncc(F)cc34)cn2)cn1 [P-0331, [5-(5-Fluoro-1H-pyrrolo[2,3-b]pyridin-3-ylmethyl)-pyridin-2-yl]-(6-methoxy-pyridin-3-ylmethyl)-amine] | < 1
36 | COc1ccccc1CNc1ccc(Cc2c[nH]c3ncc(C#N)cc23)cn1 [P-0337, 3-[6-(2-Methoxy-benzylamino)-pyridin-3-ylmethyl]-1H-pyrrolo[2,3-b]pyridine-5-carbonitrile] | < 1
37 | COc1ccc(Cc2c[nH]c3nccc(-c4ccsc4)c23)cn1 [P-0022, 3-(6-Methoxy-pyridin-3-ylmethyl)-4-thiophen-3-yl-1H-pyrrolo[2,3-b]pyridine] | < 1
38 | Fc1cc(C(F)(F)F)ccc1CNc1ccc(Cc2c[nH]c3ncccc23)cn1 [P-0344, (2-Fluoro-4-trifluoromethyl-benzyl)-[5-(1H-pyrrolo[2,3-b]pyridin-3-ylmethyl)-pyridin-2-yl]-amine] | < 1
39 | FC(F)Oc1ccccc1CNc1ncc(Cc2c[nH]c3ncccc23)cn1 [P-0312, (2-Difluoromethoxy-benzyl)-[5-(1H-pyrrolo[2,3-b]pyridin-3-ylmethyl)-pyrimidin-2-yl]-amine] | < 1
40 | Fc1ccc(Cl)c(CNc2ncc(Cc3c[nH]c4ncc(Cl)cc34)cn2)c1 [P-0408, (2-Chloro-5-fluoro-benzyl)-[5-(5-chloro-1H-pyrrolo[2,3-b]pyridin-3-ylmethyl)-pyrimidin-2-yl]-amine] | < 1
41 | Fc1cc(F)cc(CNc2ccc(Cc3c[nH]c4ncccc34)cn2)c1 [P-0356, (3,5-Difluoro-benzyl)-[5-(1H-pyrrolo[2,3-b]pyridin-3-ylmethyl)-pyridin-2-yl]-amine] | < 1
